Measured values from PubChem BioAssay (NCI).
Where “and” joins values, the source holds several entries; their conditions need not be identical. Equal entries are not always repeated.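 Step 1: Grow cells in 96-well plates. Step 2: Expose to compound for 48 hours at 5 concentrations. Step 3: Interpolate endpoints linearly; if unreached, use highest concentration. At the GI50, growth is halved. At the TGI there is no net growth.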

Assays:
Assay in all cases: growth of human tumour cells (NCI), 48 h
[1] = tested on: 786-0 renal
[2] = tested on: K-562 leukemia
[3] = tested on: OVCAR-3 ovarian
[4] = tested on: ACHN renal
[5] = tested on: M14 melanoma
[6] = tested on: HCT-15 colon
[7] = tested on: NCI-H23 lung
[8] = tested on: CCRF-CEM leukemia
[9] = tested on: CAKI-1 renal
[10] = tested on: MOLT-4 leukemia

SMILES	GI50 [1]	TGI [1]	GI50 [2]	TGI [2]	GI50 [3]	TGI [3]	GI50 [4]	TGI [4]	GI50 [5]	TGI [5]	GI50 [6]	TGI [6]	GI50 [7]	TGI [7]	GI50 [8]	TGI [8]	GI50 [9]	TGI [9]	GI50 [10]	TGI [10]
Cc1ccc(-c2csc(/N=C3\C(=O)Nc4ccccc43)n2)cc1	1.63 µM	3.28 µM	1.73 µM	> 100 µM	1.64 µM	4.89 µM	2.62 µM	14.2 µM	1.32 µM	2.79 µM	2.37 µM	10.4 µM	1.46 µM	2.98 µM	1.78 µM	5.4 µM				
C=C1C(=O)O[C@H]2C[C@@H]1CC/C(C)=C/CC/C(C)=C/CC[C@H]2C	14.3 µM	28.2 µM	14 µM	> 57.1 µM	3.94 µM	19 µM	10.6 µM	24.6 µM	14.2 µM	29.3 µM	15.7 µM	32.9 µM	20.6 µM	41 µM	18.8 µM	48.5 µM	17 µM	33.6 µM	10.6 µM	> 24.6 µM
CN[C@H]1C=C[C@@H]2/C=C(C)/C=C/[C@@H](C)[C@H]([C@H](C)[C@H](O)[C@@H](C)NC(C)=O)OC(=O)/C=C/C=C(C)\C=C\[C@]2(C)C1	0.00836 µM	> 49 µM	0.0202 µM	> 49 µM		46.7 µM	0.0146 µM	> 49 µM	< 0.001 µM and 0.0049 µM	7.24 µM	0.0906 µM and 0.0814 µM	> 49 µM	0.0687 µM and 0.0376 µM	> 49 µM	6.16 µM	> 49 µM			16.6 µM	> 49 µM
Cn1cc(C2=C(c3cn(CCCCN)c4ccccc34)C(=O)NC2=O)c2ccccc21	> 25 µM	> 25 µM	> 25 µM	> 25 µM	> 25 µM	> 25 µM	> 25 µM	> 25 µM	> 25 µM	> 25 µM	> 25 µM	> 25 µM	> 25 µM	> 25 µM	> 25 µM	> 25 µM	> 25 µM	> 25 µM	> 25 µM	> 25 µM
Cc1cnc(NC(=O)Nc2cc(Br)c(C)cc2OC[C@@H]2CNCCO2)cn1	0.417 µM and 0.353 µM	> 10 µM and 5 µM	0.466 µM and 0.419 µM	6.27 µM and 2.5 µM	1.37 µM and 1.13 µM	> 10 µM and 10.2 µM	0.319 µM and 0.225 µM		0.338 µM and 0.311 µM	1.37 µM and 0.999 µM	1.65 µM and 2.38 µM	> 10 µM and 12.8 µM	0.466 µM and 0.548 µM	> 10 µM and 9.42 µM	0.321 µM and 0.259 µM	9.48 µM and 1.23 µM	1.74 µM and 0.852 µM	> 10 µM and 6.16 µM	0.445 µM and 0.368 µM	> 10 µM and 3.9 µM
CCc1cccc(C)c1NC(=O)c1sc2nc3c(cc2c1N)CCCCC3	4.58 µM	> 100 µM			2.56 µM	9.02 µM	7.45 µM	> 100 µM	2.53 µM	> 100 µM	3.17 µM	> 100 µM	4.67 µM	> 100 µM	2.68 µM	> 100 µM			4.56 µM	> 100 µM
COc1ccc(-c2cc(=O)c3ccc(C)nc3[nH]2)cc1	> 100 µM	> 100 µM		> 100 µM	> 100 µM	> 100 µM		> 100 µM		> 100 µM		> 100 µM		> 100 µM		> 100 µM		> 100 µM		> 100 µM
CC(C)=CCc1c(OC(=O)c2c(C)cc(O)cc2O)cc(CO)c(CO)c1O		> 100 µM		32.9 µM				37.2 µM		44.7 µM		34.6 µM		33 µM				20.5 µM		63 µM
CN(C)CCCNC(=O)c1cc(NC(=O)c2cc(NC(=O)CCc3c[nH]c4ccccc34)cn2C)cn1C	> 100 µM	> 100 µM	> 100 µM	> 100 µM	> 100 µM	> 100 µM	> 100 µM	> 100 µM	> 100 µM	> 100 µM	> 100 µM	> 100 µM	> 100 µM	> 100 µM	> 100 µM	> 100 µM			> 100 µM	> 100 µM
CCOC(=O)C1N(S(=O)(=O)c2ccc(C)cc2)CCC12c1ccccc1N(C(C)=O)C2c1ccc(OC)c(OC)c1 (centres undefined)		> 100 µM		> 100 µM		> 100 µM		> 100 µM		> 100 µM				> 100 µM		> 100 µM		> 100 µM		
CCC[CH2][Sn]([CH2]CCC)([CH2]CCC)[O]c1ccc(Cl)cc1Cl	0.135 µM	0.266 µM	0.12 µM	0.408 µM	0.128 µM	0.259 µM	0.155 µM	0.291 µM	0.143 µM	0.284 µM	0.156 µM	0.333 µM	0.109 µM	0.321 µM			0.0878 µM	0.258 µM	0.165 µM	2.77 µM
COc1ccc2c(c1)C(=O)c1c-2n(CCCN=[N+]=[N-])c(=O)c2cc(OC)c(OC)cc12	26.7 µM	89.5 µM			49.2 µM	> 100 µM	10.2 µM	25.8 µM			> 100 µM	> 100 µM			4.01 µM	16.4 µM	3.82 µM	24.6 µM	10.6 µM	23.5 µM
Nc1ccc(C2=NN(c3ccccc3)C(c3ccc(Cl)cc3)C2)cc1 (centres undefined)	2.03 µM	4.22 µM			2.59 µM	6.88 µM	1.8 µM	3.57 µM	2.35 µM	5.34 µM	2.62 µM	7.9 µM	2.12 µM	5.09 µM	2.3 µM	6.17 µM	3.21 µM	14 µM	2.23 µM	6.61 µM
C=C(COC(C)=O)CC(OC(C)=O)c1ccccc1 (centres undefined)		> 100 µM		> 100 µM		> 100 µM		> 100 µM		> 100 µM		> 100 µM		> 100 µM		> 100 µM				> 100 µM
CC[N+](CC)=c1sc2c(s1)C(c1ccc(Cl)cc1)Oc1ccc(Cl)cc1-2 (centres undefined)	1.92 µM	3.76 µM	0.917 µM	10.3 µM	1.91 µM	3.95 µM	11.3 µM	23.9 µM	1.86 µM	4 µM	7.13 µM	21.5 µM	1.07 µM	6.79 µM	0.665 µM	6.35 µM			2.16 µM	6.41 µM
CC1CCC2(CC1)NN=c1s/c(=C\c3ccc(O)cc3)c(=O)n1N2 (centres undefined)		> 100 µM		> 100 µM		> 100 µM				> 100 µM				> 100 µM		> 100 µM				> 100 µM
CC(C)CC(NC(=O)c1cccc(O)c1O)C(=O)NCc1cc(CNC(=O)C(CC(C)C)NC(=O)c2cccc(O)c2O)cc(CNC(=O)C(CC(C)C)NC(=O)c2cccc(O)c2O)c1 (centres undefined)		> 100 µM		> 100 µM		19.7 µM		> 100 µM				> 100 µM		36.1 µM		54 µM		> 100 µM		37.9 µM

SMILES	GI50 [1]	TGI [1]	GI50 [2]	TGI [2]	GI50 [3]	TGI [3]	GI50 [4]	TGI [4]	GI50 [5]	TGI [5]	GI50 [6]	TGI [6]	GI50 [7]	TGI [7]	GI50 [8]	TGI [8]	GI50 [9]	TGI [9]	GI50 [10]	TGI [10]
O=C1c2ccccc2C(Br)(Br)c2ccccc21		> 31.6 µM		> 31.6 µM		> 31.6 µM		> 31.6 µM		> 31.6 µM		> 31.6 µM		> 100 µM		> 31.6 µM				> 31.6 µM
COC(=O)[C@@H](C)C[C@H](Cc1ccccc1)NC(=O)c1csc(CC[C@H](C(C)C)N(C)C(=O)[C@@H](NC(=O)[C@H]2CCCCN2C)C(C)C)n1	0.382 µM	> 30.2 µM	0.131 µM	> 33.3 µM	0.108 µM		0.324 µM	> 33.3 µM	0.262 µM	1.52 µM	0.604 µM	> 33.3 µM	0.882 µM	> 33.3 µM	0.295 µM	> 33.3 µM			0.44 µM	> 33.3 µM
COc1cccc(-c2nc3sccn3c2-c2ccnc(NCCCNS(=O)(=O)c3cccc(F)c3)c2)c1	4.49 µM	> 100 µM	1.77 µM	> 100 µM	3.06 µM	> 100 µM	2.22 µM	10.6 µM	2.35 µM	6.05 µM	2.63 µM	> 100 µM	2.12 µM	7.29 µM	2.26 µM	> 100 µM			1.84 µM	5.46 µM
COc1cc(NC(N)=NCCC(C)(C)Oc2ccc(C(F)(F)F)cc2)ncc1C#N	1.61 µM	3.14 µM			1.68 µM	3.17 µM	1.7 µM	3.06 µM	1.62 µM	3.11 µM	1.65 µM	3.07 µM	1.43 µM	2.81 µM			1.55 µM	2.9 µM		
CC(=O)[O][Ga]([Cl])[O]C(C)=O	> 100 µM	> 100 µM	> 100 µM	> 100 µM	> 100 µM	> 100 µM	> 100 µM	> 100 µM	> 100 µM	> 100 µM			> 100 µM	> 100 µM	> 100 µM	> 100 µM	> 100 µM	> 100 µM	> 100 µM	> 100 µM
Cc1[nH]c2ccccc2c1C(=O)CC1(O)C(=O)Nc2ccccc21 (centres undefined)		> 100 µM		> 100 µM				> 100 µM		> 100 µM		> 100 µM		> 100 µM		> 100 µM		> 100 µM		> 100 µM
COC(=O)N(C(=O)OC)C(C(=O)O)C(C)C (centres undefined)		> 100 µM						> 100 µM		> 100 µM				> 100 µM				> 100 µM		
CN(C)CCCOc1ccc(-c2ccc3ncc4c(c3c2)n(C2CCOCC2)c(=O)n4C)cn1	1.74 µM	12.1 µM	9.07 µM	43.4 µM	1.34 µM	10.3 µM	2 µM	12.6 µM	1.78 µM	13.8 µM	3.08 µM	18 µM	2.53 µM	22.1 µM	3.02 µM	22.7 µM			1.51 µM	14.4 µM
COc1ccc2c(CN3CCCCC3CO)cc3cc(OC)c(OC)cc3c2c1 (centres undefined)		17.3 µM		10.1 µM		19.4 µM		31.1 µM		25 µM		20.8 µM		16.9 µM		18.8 µM				14.9 µM
CN(C)CC(C)(C)C(=O)/C=C/c1ccc(/C=C/C(=O)C(C)(C)CN(C)C)cc1		3.08 µM		0.594 µM		2.59 µM		2.84 µM		3.21 µM		5.49 µM		3.93 µM		3.78 µM		2.9 µM		
c1cc(N(CCn2cccn2)CCn2cccn2)cc(N(CCn2cccn2)CCn2cccn2)c1		> 100 µM		> 100 µM		> 100 µM		> 100 µM		> 100 µM		> 100 µM				> 100 µM		> 100 µM		> 100 µM
O=c1nc(/C=C/c2ccccc2Cl)cc2n1CCN2CCO		> 100 µM		> 100 µM		79.8 µM		> 100 µM		> 100 µM		> 100 µM				> 100 µM		> 100 µM		> 100 µM
Fc1ccc2[nH]cc(-c3nonc3-c3c[nH]c4ccc(Br)cc34)c2c1	2.16 µM	4.5 µM	2.22 µM	7.38 µM	2.07 µM	5.43 µM	2 µM	8.42 µM	1.87 µM	4.98 µM	1.64 µM	3.29 µM	1.95 µM	5.86 µM	3.07 µM	14.9 µM	2.89 µM	13.8 µM		
Nc1ccccc1C(=O)CC1OC(=O)c2ccccc21 (centres undefined)		> 100 µM		> 100 µM		> 100 µM		> 100 µM		> 100 µM		> 100 µM								> 100 µM
C=C(c1ccc2nc(NC(=O)OC)[nH]c2c1)c1cccs1		> 100 µM		> 35.5 µM				7.47 µM		> 100 µM		2.24 µM						8.27 µM		
CCCCCC[N+](C)(C)Cc1ccc(C[N+](C)(C)CCCCCC)cc1		18.1 µM		5.65 µM		14.4 µM		24.8 µM		9.34 µM		23.7 µM						14.6 µM		
